Source: patent US20240067655A1 (NEURON23, INC., priority 2020, published 2024)

Target: T1, wt human LRRK2, catalytic site (Homo sapiens, UniProt Q5S007)
T1 construct: wt human LRRK2, catalytic site; purchased ThermoFisher/USA
Test: TR-FRET LanthaScreen Tb Kinase Activity Assay (Example 71)
Assay type: biochemical
Conditions: compounds of Table 4, 38 uM ATP, method names only wt human LRRK2, read-out: IC50, Inhibitory Activity Toward LRRK2 (Wt) and LRRK2 (G2019)
Protocol: The compounds in Table 4 were tested for their inhibitory effect on LRRK2 kinases according to the following procedures.
The basic protocol for TR-FRET LanthaScreen Tb Kinase Activity Assay inhibitor studies were performed as follows. LanthaScreen Kinase Activity Assays (ThermoFisher/USA) to evaluate inhibitors were performed by addition of 100 nl of test compound in corresponding DMSO dilutions/5 μl of kinase/fluorescein-ERM(LRRKtide) peptide mixture, 5 μl of ATP into 384 well small volume plates. After incubation for 120 minutes at room temperature, the detection reagents containing Tb-anti-pLRRKtide antibody were added to monitor phosphrylation level of peptide. Then, after 60 min minutes incubation at room temperature plates were read in Envision. Data analysis of emission ratios was according to LanthaScreen Tb Kinase Activity Assay protocol.
Kinase and assay components were adjusted to final concentrations according to the kit protocol. For LRRK2: 2 nM wt human LRRK2, catalytic site, catalytic site (ThermoFisher/USA), 400 nM peptide, 38 uM ATP in 1× Kinase Buffer A.
Basic protocol for TR-FRET LanthaScreen Tb Kinase Activity Assay inhibitor studies involved two steps:
Enzymatic step: Addition of 100 nl of test compound in corresponding DMSO dilutions, 5 μl of kinase/substrate mixture, 5 μl of ATP into 384 well small volume plates. Incubation for 120 minutes at room temperature.
Detection step: Addition of 10 μl EDTA & antibody, read plate after 60 minutes. Data analysis of emission ratios according to KinEASE assay protocol.

T1 sequence (Q5S007 1879-2138 limits assumed): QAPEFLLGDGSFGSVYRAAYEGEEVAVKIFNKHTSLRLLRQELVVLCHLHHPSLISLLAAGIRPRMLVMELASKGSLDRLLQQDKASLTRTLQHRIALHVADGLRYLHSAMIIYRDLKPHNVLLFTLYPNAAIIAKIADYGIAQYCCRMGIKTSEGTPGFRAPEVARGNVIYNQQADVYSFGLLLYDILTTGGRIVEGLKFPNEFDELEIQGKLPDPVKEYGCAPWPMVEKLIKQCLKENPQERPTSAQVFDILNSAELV

SMILES	IC50
Fc1cc(Cl)cc(F)c1C1=Nc2cn[nH]c2-c2cnn3c2N1CC3 [Compound 388, 3-(4-chloro-2,6-difluorophenyl)-2,7-dihydro-1H-2a,4,6,7,9,9a-hexaazadicyclopenta[cd,f]azulene]	10 to 100 nM
Cc1n[nH]c2c1N=C(c1c(F)cccc1F)c1c[nH]c3cc(Cl)cc-2c13 [Compound 400, 9-chloro-3-(2,6-difluorophenyl)-5-methyl-1,7-dihydropyrazolo[3′,4′:6,7]azepino[3,4,5-cd]indole]	< 10 nM
Cc1n[nH]c2c1N=C(c1c(F)ccc(C#N)c1F)N1CCCn3ncc-2c31 [Compound 397, 2,4-difluoro-3-(1-methyl-3,6,7,8-tetrahydro-2,3,5,5a,8a,10-hexaazabenzo[cd]cyclopenta[h]azulen-9-yl)benzonitrile]	< 10 nM
Fc1ccc(Br)c(Cl)c1C1=Nc2cn[nH]c2-c2cnn3c2N1CCC3 [Compound 355, 8-(3-bromo-2-chloro-6-fluoro-phenyl)-3,4,7,9,13,14-hexazatetracyclo-[7.6.1.02,6.013,16]hexadeca-1(16),2(6),4,7,14-pentaene]	< 10 nM
Fc1cccc(F)c1C1=Nc2cn[nH]c2-c2cnn3c2N1CC3 [Compound 373, 3-(2,6-difluorophenyl)-2,7-dihydro-1H-2a,4,6,7,9,9a-hexaazadicyclopenta[cd,f]azulene]	< 10 nM
C[C@@H]1CCN2C(c3c(F)cccc3F)=Nc3cn[nH]c3-c3cnn1c32 (single isomer, unassigned) [Compound 346]	10 to 100 nM
C[C@H]1CCN2C(c3c(F)cccc3F)=Nc3cn[nH]c3-c3cnn1c32 (single isomer, unassigned) [Compound 347]	< 10 nM
Fc1cncc(F)c1C1=Nc2c(Cl)n[nH]c2-c2cnn3c2N1CCC3 [Compound 386, 1-chloro-9-(3,5-difluoropyridin-4-yl)-3,6,7,8-tetrahydro-2,3,5,5a,8a,10-hexaazabenzo[cd]cyclopenta[h]azulene]	10 to 100 nM
Fc1ccc(F)c(C2=Nc3cn[nH]c3-c3cnn4c3N2CCC4)c1F [Compound 367, 8-(2,3,6-trifluorophenyl)-3,4,7,9,13,14-hexazatetracyclo[7.6.1.02,6.013,16]hexadeca-1(16),2(6),4,7,14-pentaene]	10 to 100 nM
Fc1ccc(C2CC2)c(F)c1C1=Nc2cn[nH]c2-c2cnn3c2N1CC3 [Compound 399, 3-(3-cyclopropyl-2,6-difluorophenyl)-2,7-dihydro-1H-2a,4,6,7,9,9a-hexaazadicyclopenta[cd,f]azulene]	< 10 nM
Fc1ccc(Cl)c(F)c1C1=Nc2cn[nH]c2-c2cnn3c2N1CC3 [Compound 390, 3-(3-chloro-2,6-difluorophenyl)-2,7-dihydro-1H-2a,4,6,7,9,9a-hexaazadicyclopenta[cd,f]azulene]	< 10 nM
OCc1cc(F)c(C2=Nc3cn[nH]c3-c3cnn4c3N2CCC4)c(F)c1 [Compound 359, (3,5-difluoro-4-(3,6,7,8-tetrahydro-2,3,5,5a,8a,10-hexaazabenzo[cd]cyclopenta[h]azulen-9-yl)phenyl)methanol]	10 to 100 nM
Cc1n[nH]c2c1N=C(c1c(F)cc(OC(F)F)cc1F)N1CCn3ncc-2c31 [Compound 398]	< 10 nM
Fc1cccc(F)c1C1=Nc2cn[nH]c2-c2cnn3c2N1CC1(CC1)C3 [Compound 377, 9-(2,6-difluorophenyl)-6,8-dihydro-3H-spiro[2,3,5,5a,8a,10-hexaazabenzo[cd]cyclopenta[h]azulene-7,1′-cyclopropane]]	100 to 1000 nM
c1ccc(C2=Nc3cn[nH]c3-c3cnn4c3N2CCC4)cc1 [Compound 361, 8-phenyl-3,4,7,9,13,14-hexazatetracyclo[7.6.1.02,6.013,16]hexadeca-1(16),2(6),4,7,14-pentaene]	10 to 100 nM
Fc1cc(OC(F)F)cc(F)c1C1=Nc2cn[nH]c2-c2cc(C(F)(F)F)cc3[nH]cc1c23 [Compound 384, 3-(4-(difluoromethoxy)-2,6-difluorophenyl)-9-(trifluoromethyl)-1,7-dihydropyrazolo[3′,4′:6,7]azepino[3,4,5-cd]indole]	10 to 100 nM
Fc1cccc(F)c1C1=Nc2cn[nH]c2-n2ncc3c2N1CCC3 [Compound 369, 9-(2,6-difluorophenyl)-3,6,7,8-tetrahydro-2,3,3b,4,8a,10-hexaazabenzo[cd]cyclopenta[h]azulene]	100 to 1000 nM
Fc1cccnc1C1=Nc2cn[nH]c2-c2cnn3c2N1CCCC3 [Compound 365, 10-(3-fluoropyridin-2-yl)-6,7,8,9-tetrahydro-3H-2,3,5,5a,9a,11-hexaazadicyclopenta[b,kl]heptalene]	> 1000 nM

SMILES	IC50
Fc1cccc(Br)c1C1=Nc2cn[nH]c2-c2cnn3c2N1CC3 [Compound 393, 3-(2-bromo-6-fluorophenyl)-2,7-dihydro-1H-2a,4,6,7,9,9a-hexaazadicyclopenta[cd,f]azulene]	10 to 100 nM
Fc1ccc(Br)c(F)c1C1=Nc2cn[nH]c2-c2cnn3c2N1CCC3 [Compound 353, 9-(3-bromo-2,6-difluorophenyl)-3,6,7,8-tetrahydro-2,3,5,5a,8a,10-hexaazabenzo[cd]cyclopenta[h]azulene]	< 10 nM
Fc1ccc(Br)c(F)c1C1=Nc2cn[nH]c2-c2cnn3c2N1CC3 [Compound 389, 3-(3-bromo-2,6-difluorophenyl)-2,7-dihydro-1H-2a,4,6,7,9,9a-hexaazadicyclopenta[cd,f]azulene]	< 10 nM
Fc1ccc(Br)c(Cl)c1C1=Nc2cn[nH]c2-c2cnn3c2N1CC3 [Compound 392, 3-(3-bromo-2-chloro-6-fluorophenyl)-2,7-dihydro-1H-2a,4,6,7,9,9a-hexaazadicyclopenta[cd,f]azulene]	< 10 nM
Fc1cc2ncccc2c(F)c1C1=Nc2cn[nH]c2-c2cnn3c2N1CC3 [Compound 404, 3-(5,7-difluoroquinolin-6-yl)-2,7-dihydro-1H-2a,4,6,7,9,9a-hexaazadicyclopenta[cd,f]azulene]	10 to 100 nM
Cc1cc(F)c(C2=Nc3cn[nH]c3-c3cnn4c3N2CCC4)c(F)c1 [Compound 343, 9-(2,6-difluoro-4-methylphenyl)-3,6,7,8-tetrahydro-2,3,5,5a,8a,10 hexaazabenzo[cd]cyclopenta[h]azulene]	< 10 nM
Fc1cccc(F)c1C1=Nc2cn[nH]c2-c2cnn3c2N1CCCC3 [Compound 344, 10-(2,6-difluorophenyl)-6,7,8,9-tetrahydro-3H-2,3,5,5a,9a,11-hexaazadicyclopenta[b,kl]heptalene]	10 to 100 nM
Cc1cccc(F)c1C1=Nc2cn[nH]c2-c2cnn3c2N1CCC3 [Compound 340, 9-(2-fluoro-6-methylphenyl)-3,6,7,8-tetrahydro-2,3,5,5a,8a,10 hexaazabenzo[cd]cyclopenta[h]azulene]	< 10 nM
CC1CCn2ncc3c2N1C(c1c(F)cccc1F)=Nc1cn[nH]c1-3 (centres unmarked) [Compound 351, 9-(2,6-difluorophenyl)-8-methyl-3,6,7,8-tetrahydro-2,3,5,5a,8a,10-hexaazabenzo[cd]cyclopenta[h]azulene]	10 to 100 nM
C[C@H]1CN2C(c3c(F)cccc3F)=Nc3cn[nH]c3-c3cnn(c32)C1 (single isomer, unassigned) [Compound 350]	10 to 100 nM
Cc1n[nH]c2c1N=C(c1c(F)cccc1F)N1CCn3ncc-2c31 [Compound 372, 8-(2,6-difluorophenyl)-5-methyl-3,4,7,9,12,13-hexazatetrahydro[7.5.1.02,6.012,15]pentadeca-1(15),2,5,7,13-pentaene]	< 10 nM
OCc1ccc(F)c(C2=Nc3cn[nH]c3-c3cc(C(F)(F)F)cc4[nH]cc2c34)c1F [Compound 407, (2,4-difluoro-3-(9-(trifluoromethyl)-1,7-dihydropyrazolo[3′,4′:6,7]azepino[3,4,5-cd]indol-3-yl)phenyl)methanol]	< 10 nM
Fc1ccccc1C1=Nc2cn[nH]c2-c2cnn3c2N1CCCC3 [Compound 363, 10-(2-fluorophenyl)-6,7,8,9-tetrahydro-3H-2,3,5,5a,9a,11-hexaazadicyclopenta[b,kl]heptalene]	100 to 1000 nM
Fc1cccc(F)c1C1=Nc2c(Cl)n[nH]c2-c2cnn3c2N1CCC3 [Compound 371, 5-chloro-8-(2,6-difluorophenyl)-3,4,7,9,13,14-hexazatetracyclo[7.6.1.02,6.013,16]hexadeca-1(16),2(6),4,7,14-pentaene]	< 10 nM
Fc1cccc(F)c1C1=Nc2cn[nH]c2-c2cc(C(F)(F)F)cc3[nH]cc1c23 [Compound 401, 3-(2,6-difluorophenyl)-9-(trifluoromethyl)-1,7-dihydropyrazolo[3′,4′:6,7]azepino[3,4,5-cd]indole]	< 10 nM
C[C@@H]1CN2C(c3c(F)cccc3F)=Nc3cn[nH]c3-c3cnn(c32)C1 (single isomer, unassigned) [Compound 349]	< 10 nM
Fc1cccc(Cl)c1C1=Nc2cn[nH]c2-c2cnn3c2N1CC3 [Compound 383, 8-(2-chloro-6-fluoro-phenyl)-3,4,7,9,12,13-hexazatetracyclo[7.5.1.02,6.012,15]pentadec-1(15),2(6),4,7,13-pentaen]	< 10 nM
